Experimental data as given in PMC9855884, “Glycosylated Lipopeptides—Synthesis and Evaluation of Antimicrobial Activity and Cytotoxicity” (Biomolecules, 2023).
Converted amounts (≈) assume the structure as drawn. Where a SMILES comes first, the peptide text is derived from it. The star is where a group is joined. βGlcNAc = CC(=O)N[C@@H]1[C@@H](O)[C@H](O)[C@@H](CO)O[C@H]1*; Stearoyl = CCCCCCCCCCCCCCCCCC(=O)*; Palmitoyl = CCCCCCCCCCCCCCCC(=O)*

How the values were obtained:
K. aerogenes ATCC 13048 = type: cell-based, Klebsiella aerogenes; settings: ATCC 13048, 18 h
Procedure: (§1) The Acinetobacter baumannii ATCC BAA-1605, Enterococcus faecium ATCC 700221, Klebsiella aerogenes ATCC 13048, Klebsiella pneumoniae ATCC 700603, Pseudomonas aeruginosa ATCC 9027, Staphylococcus aureus ATCC 33591, Candida glabrata ATCC 15126, strains were acquired from the American Type Culture Collection (ATCC). All the strains were stored at −80 °C in Roti-Store cryo vials and were transferred into fresh Mueller–Hinton broth (MHB, Becton Dickinson, Warsaw, Poland) for bacteria or RPMI-1640 (Sigma-Aldrich, Steinheim, Germany) for fungi before the tests and incubated for 24 h at 37 °C. Then, the cultures were seeded on the Mueller–Hinton agar (BioMaxima, Lublin, Poland) or Sabouraud dextrose agar (SDA, BioMaxima, Lublin, Poland) plates, respectively, and incubated as just mentioned. These agar cultures were used for further microbiological assays. Cell densities for all assays were adjusted spectrophotometrically (Multiskan GO Microplate Spectrophotometer, Thermo Fisher Scientific, Vantaa, Finland) at 600 and 530 nm for bacteria and fungi, respectively.
(§2) The MICs were determined using a broth microdilution method according to the Clinical and Laboratory Standard Institute guidelines. For this purpose, initial inoculums of bacteria (5 × 10^5 CFU/mL) in MHB and yeasts (2 × 10^3 CFU/mL) in RPMI-1640 with 2% D-glucose were exposed to the ranging concentration of lipopeptides (1–512 μg/mL) and incubated at 37 °C for 18 h and 24 h, respectively. The experiments were conducted on 96-well microtiter polystyrene plates (Kartell, Italy). The growth was assessed visually after incubation and the MIC was assumed as the lowest peptide concentration at which a noticeable growth of microorganisms was inhibited. All experiments were conducted in triplicate.

[1] = test system: A. baumannii ATCC BAA 1605; type: cell-based, Acinetobacter baumannii; settings: ATCC BAA 1605, 18 h
Procedure: as §1, §2

[2] = test system: human red blood cells (RBCs); assay: Hemolysis assay; type: cell-based; settings: human RBCs 4% (v/v) in PBS, 60 min, 37 °C, absorbance 540 nm, 1–512 µg/mL; triplicate
Procedure: The hemolysis assay was conducted using a procedure described previously. For this purpose, fresh human red blood cells (RBCs) with EDTA anticoagulant were washed three times with phosphate-buffer saline (PBS) using centrifugation at 800× g for 10 min and resuspended in PBS. Then, the stock solution of RBCs was added to serial dilution of peptides on 96-well polystyrene plates to reach a final volume of 100 µL with 4% concentration of erythrocytes (v/v) over the concentration range of 1–512 µg/mL of the tested compounds. The control wells for the 0% and 100% hemolysis consisted of RBCs suspended in PBS and 1% of Triton X–100, respectively. Subsequently, the plates were incubated for 60 min at 37 °C and then centrifuged at 800× g for 10 min at 4 °C (Sorvall ST 16R Centrifuge, Thermo Scientific, Osterode am Harz, Germany). After centrifugation, the supernatant was carefully […] to new microtiter plates and the release of hemoglobin was monitored through absorbance measurements at 540 nm (Multiskan™ GO Microplate Spectrophotometer, Thermo Scientific). All experiments were conducted in triplicate.
The lipopeptides were tested against human erythrocytes in order to evaluate their hemolytic activity. Moreover, selectivity indexes (SI) were calculated by dividing the HC50 by MIC. […] In some cases, glycosylation led to suppressed toxicity, e.g., a comparison of C14 peptides analogs: 1–3 and 10–12. On the other hand, an increase in toxicity of C18 analogs (7–9 vs. 16–18) was found for glycosylated USCLs. For this reason, SI was calculated to provide a correlation between antimicrobial activity and toxicity. […] Among gUSCLs: 10 and 11 with C14 fatty acid and 16–18 should be highlighted owing to their high selectivity against E. fecium and C. glabrata.

[3] = test system: K. pneumoniae ATCC 700603; type: cell-based, Klebsiella pneumoniae; settings: ATCC 700603, 18 h
Procedure: as §1, §2

MTT assay, cytotoxicity = type: cell-based, human; settings: human, HaCaT keratinocytes, 24 h incubation at 37 °C, 0.5–500 μg/mL, six replicates per concentration, repeated at least twice
Procedure: To evaluate the cytotoxicity of the test peptides (IC50), the classic MTT assay on 96-well plates was performed for human keratinocytes (HaCaT) which were acquired from the ATCC. The assay was based on colorimetric determination of the cell metabolic activity where the color intensity reflected the number of live cells that could be measured spectrophotometrically. The cell line was cultured in a Dulbecco’s modified Eagle Medium (Invitrogen) supplemented with 10% fetal bovine serum (v/v), 100 units/mL of penicillin, 100 μg/mL of streptomycin, and 2 mM L-glutamine and was kept at 37 °C in a humidified 5% CO2 incubator. Briefly, a day after plating of 500 cells per well, a series of concentrations (0.5–500 μg/mL) of the test compounds were applied. DMSO was added to the control cells at a final concentration of 1.0% (v/v), which was related to the maximum concentration of the solvent compounds used in the experiment. After 24 h of incubation at 37 °C (humidified 5% CO2 incubator) with the peptides, a medium containing 1 mg/mL of MTT was added to the wells up to a final concentration of 0.5 mg/mL. Subsequently, the plates were incubated at 37 °C for 4 h. Then, the medium was aspirated, and the formazan product was solubilized with DMSO. The background absorbance at 630 nm was subtracted from that at 570 nm for each well (Epoch, BioTek Instruments, Winooski, VT, USA). Six replicates were conducted for each concentration. All experiments were repeated at least twice and the resulting IC50 values were calculated with a GraFit 7 software (v. 7.0, Erithacus, Berkley, CA, USA).
The selectivity indexes were calculated for all the strains as IC50/MIC. According to IC50, in most cases, glycosylation caused only a slight decrease in toxicity. However, in contrast with SI calculated for HC50, the differences between USCLs and gUSCLs are not so distinct. […] Moreover, toxicity of USCLs and gUSCLs is high and exceeds their antimicrobial activity. The lipopetides were not selective against Gram-negative strains (K. pneumoniae, A. baumannii, P. aeruginosa, K. aerogenes) over human cells. A few USCLs were selective (SI > 1) against E. faecium and S. aureus with SI up to 1.87; and some gUSCLs were selective against E. faecium but not against S. aureus, with SI between 0.63 and 1.73. […] In this case, SI of gUSCLs was noticeably […] than that of corresponding parent USCLs (2.07, 1.99, 2.67 vs. 2.53, 2.36, 3.46, respectively). Selectivity indexes were plotted against adjusted retention time (Figures S15–S21). A moderate linear correlation was found in USCLs and K. pneumoniae, C. glabrata, and gUSCLs and K. pneumoniae, K. aerogenes (R^2 between 0.6064 and 0.6481). A relatively high linear correlation was obtained for USCLs and K. aerogenes (R^2 of 0.8214) and also for gUSCLs and C. glabrata (R^2 of 0.9223).

| SMILES | MIC (K. aerogenes ATCC 13048) [µg/mL] | MIC [1] [µg/mL] | HC50 (hemolytic activity) [2] [µg/mL] | MIC [3] [µg/mL] | IC50 at 24 h (MTT assay, cytotoxicity) [µg/mL] |
| --- | --- | --- | --- | --- | --- |
| CCCCCCCCCCCCCCCC(=O)N[C@@H](CCCNC(=N)N)C(=O)N[C@@H](CCCNC(=N)N)C(=O)N[C@@H](CO[C@@H]1O[C@H](CO)[C@@H](O)[C@H](O)[C@H]1NC(C)=O)C(N)=O [Peptide 15, C16-RRS(GlcNAc)-NH2] (Palmitoyl-Arg-Arg-Ser(βGlcNAc)-NH2) | 256 (≈ 298 µM) | 32 (≈ 37.3 µM) | 111.45 ± 11.65 | 256 (≈ 298 µM) | 5.16 ± 1.32 (≈ 6.01 µM) |
| CCCCCCCCCCCCCCCCCC(=O)N[C@@H](CO[C@@H]1O[C@H](CO)[C@@H](O)[C@H](O)[C@H]1NC(C)=O)C(=O)N[C@@H](CCCNC(=N)N)C(=O)N[C@@H](CCCNC(=N)N)C(N)=O [Peptide 16, C18-S(GlcNAc)RR-NH2] (Stearoyl-Ser(βGlcNAc)-Arg-Arg-NH2) | 32 (≈ 36.1 µM) | 16 (≈ 18.1 µM) | 77.45 ± 1.13 | 64 (≈ 72.2 µM) | 10.1 ± 0.66 (≈ 11.4 µM) |
| CCCCCCCCCCCCCCCCCC(=O)N[C@@H](CCCNC(=N)N)C(=O)N[C@@H](CO[C@@H]1O[C@H](CO)[C@@H](O)[C@H](O)[C@H]1NC(C)=O)C(=O)N[C@@H](CCCNC(=N)N)C(N)=O [Peptide 17, C18-RS(GlcNAc)R-NH2] (Stearoyl-Arg-Ser(βGlcNAc)-Arg-NH2) | 32 (≈ 36.1 µM) | 16 (≈ 18.1 µM) | 45.25 ± 0.59 | 16 (≈ 18.1 µM) | 9.45 ± 0.89 (≈ 10.7 µM) |
| CCCCCCCCCCCCCCCCCC(=O)N[C@@H](CCCNC(=N)N)C(=O)N[C@@H](CCCNC(=N)N)C(=O)N[C@@H](CO[C@@H]1O[C@H](CO)[C@@H](O)[C@H](O)[C@H]1NC(C)=O)C(N)=O [Peptide 18, C18-RRS(GlcNAc)-NH2] (Stearoyl-Arg-Arg-Ser(βGlcNAc)-NH2) | 32 (≈ 36.1 µM) | 32 (≈ 36.1 µM) | 48.04 ± 2.45 | 32 (≈ 36.1 µM) | 13.8 ± 1.71 (≈ 15.6 µM) |
